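Five compound concentrations were applied to cells in 96-well plates for 48 hours; endpoints were derived by simple linear interpolation of the resulting dose-response curve. Abbreviation: GI50, concentration required for 50% inhibition of growth.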 Active and inactive are the calls of the source. No stated cut-off is given here; in the data, active = GI50 up to about 1.1 µM and inactive = higher.
Legend:
Experiment in all cases: NCI-60 cell line screen, 48 h
CAKI-1 = test system: CAKI-1
OVCAR-8 = test system: OVCAR-8
DLD-1 = test system: DLD-1
NCI-H226 = test system: NCI-H226
DMS-273 = test system: DMS-273
DMS-114 = test system: DMS-114
Malme-3M = test system: Malme-3M
M19-MEL = test system: M19-MEL
NCI/ADR-RES = test system: NCI/ADR-RES
NCI-H23 = test system: NCI-H23
HCC 2998 = test system: HCC 2998
KM-20L2 = test system: KM-20L2
M14 = test system: M14
SR = test system: SR
BT-549 = test system: BT-549
MDA-MB-435 = test system: MDA-MB-435
MDA-N = test system: MDA-N
T47D = test system: T47D
MDA-MB-231 = test system: MDA-MB-231
Hs-578T = test system: Hs-578T

Measured: GI50

N/C(=N\O)N/N=C/c1ncccc1O
inactive: CAKI-1 22.4 µM | OVCAR-8 5.04 µM | DLD-1 5.65 µM | NCI-H226 18.7 µM | DMS-273 7.28 µM | DMS-114 8.05 µM | Malme-3M 35.2 µM | M19-MEL 19.2 µM | NCI/ADR-RES 8.73 µM | NCI-H23 > 49 µM | HCC 2998 12.1 µM | KM-20L2 10.4 µM

CC12CCC(=O)N1c1cnccc1N2 (stereo not given)
inactive: CAKI-1 > 100 µM | OVCAR-8 > 100 µM | DLD-1 > 100 µM | M14 > 100 µM | SR > 100 µM | DMS-273 > 100 µM | DMS-114 > 100 µM | Malme-3M > 100 µM | NCI-H23 > 100 µM | HCC 2998 > 100 µM | KM-20L2 > 100 µM

CCOc1ncn(-c2ccc(NC(=S)Nc3cccc(O)c3)cc2)n1
inactive: BT-549 > 100 µM | OVCAR-8 > 100 µM | MDA-MB-435 > 100 µM | M14 > 100 µM | SR > 100 µM | MDA-N > 100 µM | T47D > 100 µM | NCI-H23 > 100 µM | HCC 2998 > 100 µM | MDA-MB-231 > 100 µM

CC1(C)OC[C@H](C(=N)OCc2ccccc2)O1
inactive: CAKI-1 > 100 µM | OVCAR-8 > 100 µM | DLD-1 > 100 µM | NCI-H226 19.3 µM | M14 > 100 µM | SR > 100 µM | DMS-273 > 100 µM | DMS-114 > 100 µM | Malme-3M > 100 µM | M19-MEL > 100 µM | NCI-H23 > 100 µM | HCC 2998 > 100 µM | KM-20L2 > 100 µM

COc1cc(OC)cc(Oc2nc3cc(F)c(F)cc3nc2-c2ccccc2)c1
inactive: CAKI-1 > 100 µM | BT-549 > 100 µM | OVCAR-8 > 100 µM | NCI-H226 > 100 µM | MDA-MB-435 > 100 µM | M14 > 100 µM | SR > 100 µM | Malme-3M > 100 µM | MDA-N > 100 µM | NCI/ADR-RES > 100 µM | Hs-578T > 100 µM | T47D > 100 µM | NCI-H23 > 100 µM

CCCCC(CC)C(=O)Oc1ccc(C(=O)c2ccccc2)c(O)c1 (stereo not given)
inactive: CAKI-1 43.5 µM | BT-549 39.1 µM | OVCAR-8 44.9 µM | MDA-MB-435 35.8 µM | M14 38.5 µM | Malme-3M 40.6 µM | MDA-N 41.4 µM | NCI/ADR-RES 35.9 µM | Hs-578T 20.6 µM | T47D 45.7 µM | NCI-H23 35.2 µM | HCC 2998 52.8 µM | MDA-MB-231 > 100 µM

N#Cc1c(Cl)cc(Cl)n2c1nc1ccccc12
inactive: CAKI-1 3.43 µM | BT-549 6.38 µM | OVCAR-8 15.3 µM | NCI-H226 13.8 µM | MDA-MB-435 11.5 µM | M14 8.53 µM | SR 5.18 µM | Malme-3M 2.76 µM | MDA-N 10.1 µM | NCI/ADR-RES 12.6 µM | Hs-578T 11 µM | T47D 5.64 µM | NCI-H23 18.2 µM | HCC 2998 2.51 µM | MDA-MB-231 6.49 µM

O=c1oc2ccccc2n1P(=O)(Oc1ccc(Cl)cc1)n1c(=O)oc2ccccc21
inactive: CAKI-1 > 100 µM | OVCAR-8 > 100 µM | DLD-1 > 100 µM | NCI-H226 > 100 µM | SR > 100 µM | DMS-273 78.9 µM | DMS-114 > 100 µM | Malme-3M > 100 µM | M19-MEL > 100 µM | NCI-H23 > 100 µM | HCC 2998 46.6 µM | KM-20L2 > 100 µM

CCCCCCCCCCCCCCCc1nnc(S)[nH]1
inactive: DLD-1 > 10 µM | M14 > 100 µM | SR 29.6 µM | DMS-114 60.4 µM | Malme-3M > 100 µM | M19-MEL > 100 µM | NCI-H23 > 100 µM | HCC 2998 > 100 µM

COc1ccc2nc3c(C)cc4ccccc4n3c2c1
inactive: BT-549 > 100 µM | OVCAR-8 72.1 µM | NCI-H226 > 100 µM | MDA-MB-435 > 100 µM | M14 > 100 µM | SR 50.2 µM | Malme-3M > 100 µM | MDA-N > 100 µM | NCI/ADR-RES > 100 µM | Hs-578T 18 µM | T47D > 100 µM | NCI-H23 > 100 µM | HCC 2998 > 100 µM

CN1C(=O)C(C#N)C2C[C@@]1(C)Oc1ccccc12 (stereo not given in full)
inactive: CAKI-1 > 100 µM | BT-549 64.9 µM | OVCAR-8 > 100 µM | NCI-H226 > 100 µM | MDA-MB-435 > 100 µM | M14 > 100 µM | MDA-N > 100 µM | NCI/ADR-RES > 100 µM | Hs-578T > 100 µM | NCI-H23 > 100 µM | HCC 2998 > 100 µM | MDA-MB-231 > 100 µM

C=C1CC[C@@H](Br)C(C)(C)[C@]12CCC(C)(O)C(Cl)C2 (stereo not given in full)
inactive: CAKI-1 15.8 µM | OVCAR-8 18.7 µM | DLD-1 17.5 µM | NCI-H226 16.7 µM | DMS-273 18.8 µM | DMS-114 17.2 µM | Malme-3M 30.3 µM | M19-MEL 18.8 µM | NCI-H23 26.1 µM | HCC 2998 23.3 µM | KM-20L2 18.3 µM

CC(=O)/N=C1\N/C(=C/c2cc([N+](=O)[O-])ccc2O)CN1C
inactive: CAKI-1 > 100 µM | BT-549 > 100 µM | OVCAR-8 > 100 µM | NCI-H226 > 100 µM | MDA-MB-435 > 100 µM | M14 > 100 µM | MDA-N > 100 µM | NCI/ADR-RES > 100 µM | T47D > 100 µM | NCI-H23 > 100 µM | HCC 2998 > 100 µM | MDA-MB-231 > 100 µM

CCOC(=O)/C=C1/C(CCCOCc2ccccc2)C2CCCC23CC2(CCN13)OCCO2 (stereo not given)
inactive: OVCAR-8 24.8 µM | DLD-1 19 µM | NCI-H226 22.6 µM | DMS-273 16.8 µM | DMS-114 13.9 µM | Malme-3M 16.1 µM | M19-MEL 19.6 µM | NCI-H23 12.5 µM | HCC 2998 25.8 µM | KM-20L2 22.3 µM

CC1=C(SCCO)C(=O)c2ccccc2C1=O
inactive: CAKI-1 14.9 µM | BT-549 17.8 µM | OVCAR-8 12.4 µM | NCI-H226 14.7 µM | MDA-MB-435 11.6 µM | M14 14.3 µM | SR 3.21 µM | Malme-3M 14.2 µM | MDA-N 5.09 µM | NCI/ADR-RES 14.3 µM | Hs-578T 12.2 µM | T47D 3.21 µM | NCI-H23 12.6 µM | HCC 2998 16.6 µM | MDA-MB-231 13.7 µM
